Data taken from US11413240B2 (Board of Regents, The University of Texas System, priority 2016, dated 2022).

What was measured:
[1] = in vivo; cited from earlier work
[2] = 10 g/L, 25° C. (77° F.); cited from earlier work
[3] = test system: patients with oral mucositis pain/lesions; experiment: Additional patients assessed after methylene blue oral rinse at 0.025%, 0.05% and 0.1% (Table 2)

## CN(C)c1ccc2nc3ccc(=[N+](C)C)cc-3sc2c1 [methylene blue]
[1]
  blood-brain barrier passage: crosses the blood-brain barrier
[2]
  pH in water: 3
[3]; 0.05-0.1% methylene blue as a mouth rinse, almost all patients
  analgesia: sustained analgesia over a few days to several months
[3]; MB 0.025% oral rinse
  onset (of MB effect): 2 D
[3]; MB 0.05% oral rinse
  onset (of MB effect): 1 W
[3]; mouth rinse, case series
  tolerability: tolerated well
